Numbering of substitutions follows the chain as printed.
Experiments:
[1] = biological target: T1, PpnN (purine/pyrimidine nucleotide 5'-phosphate nucleosidase; EC 3.2.2.10) (Escherichia coli, UniProt P0ADR8, R341A/Y347A); test: initial-rate inhibition, HPLC of uracil release, nonlinear fit; format: biochemical; settings: substrate UMP; 50 mM HEPES pH 7.5, 40 °C; competitive; RY variant, monomer
T1 construct: subunit 51,794 Da (wild type; RY 51,440 Da); wild type tetramer, RY variant monomer
T1 sequence (P0ADR8 1-454 R341A/Y347A): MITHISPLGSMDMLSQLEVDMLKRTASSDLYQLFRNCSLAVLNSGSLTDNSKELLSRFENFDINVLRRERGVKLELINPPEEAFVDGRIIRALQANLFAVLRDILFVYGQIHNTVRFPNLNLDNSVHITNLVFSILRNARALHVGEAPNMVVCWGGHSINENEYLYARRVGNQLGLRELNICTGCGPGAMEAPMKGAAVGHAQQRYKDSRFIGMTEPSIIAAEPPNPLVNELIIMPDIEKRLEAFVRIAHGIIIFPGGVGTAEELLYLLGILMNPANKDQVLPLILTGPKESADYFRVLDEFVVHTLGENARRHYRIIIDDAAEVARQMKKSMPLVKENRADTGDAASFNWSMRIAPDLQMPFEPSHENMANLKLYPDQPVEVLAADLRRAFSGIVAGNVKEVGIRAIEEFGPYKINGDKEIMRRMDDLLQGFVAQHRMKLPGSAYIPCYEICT

[2] = biological target: T2, PpnN (purine/pyrimidine nucleotide 5'-phosphate nucleosidase; EC 3.2.2.10) (Escherichia coli, UniProt P0ADR8); test: as above; format: biochemical; settings: substrate UMP; 50 mM HEPES pH 7.5, 40 °C; competitive; wild type
T2 construct: subunit 51,794 Da (wild type; RY 51,440 Da); wild type tetramer, RY variant monomer
T2 sequence (P0ADR8 1-454): T1 sequence (P0ADR8 1-454 R341A/Y347A) with A341R, A347Y

O=P(O)(O)OC[C@H]1OC(O)[C@H](O)[C@@H]1O (stereo partly drawn) [D-ribose 5-phosphate]
Ki [1]: 1200 ± 100 µM
Ki [2]: 100 µM

— article PMC12322656, “N‐ to C‐Glycoside Rearrangement of Uridine 5′‐Phosphate in Two Enzymatic Steps for the Production of Pseudouridine 5′‐Phosphate” (Biotechnology and Bioengineering, 2025)
